Here are results for 25 substances from the OligoGym collection.

HELM strings list units from the 5' end as sugar, base in round brackets, then linkage (d deoxyribose, r ribose, m 2'-O-methyl, p phosphodiester). [sp] = phosphorothioate linkage

For data set [1], the target named is CTNNB1. Description: HEK293-TLR7, 100 nM ASO, then resiquimod.
In data set [2] the target is CTNNB1. Description: HEK293-TLR8, 100 nM ASO, then resiquimod.

As for “RNA1{m(G)[sp].m(G)[sp].m(G)[sp].m(U)[sp].m(C)[sp].d(C)[sp].d(A)[sp].d(C)[sp].d(C)[sp].d(A)[sp].d(C)[sp].d(T)[sp].d(A)[sp].d(G)[sp].d(C)[sp].m(C)[sp].m(A)[sp].m(G)[sp].m(U)[sp].m(A)}$$$$”, in the data set with CTNNB1 [1], the TLR7 signal (NF-kB luciferase) (% of resiquimod alone) worked out at 33.5. The TLR8 potentiation (NF-kB luciferase) (fold of resiquimod alone) with CTNNB1 [2] was determined as 1.18.
Regarding “RNA1{m(G)[sp].m(C)[sp].m(U)[sp].m(U)[sp].m(A)[sp].d(T)[sp].d(T)[sp].d(T)[sp].d(T)[sp].d(A)[sp].d(A)[sp].d(G)[sp].d(C)[sp].d(A)[sp].d(T)[sp].m(A)[sp].m(U)[sp].m(U)[sp].m(A)[sp].m(A)}$$$$”, the TLR7 signal (NF-kB luciferase) (% of resiquimod alone) with CTNNB1 [1] turned out to be 41.1. Besides, the TLR8 potentiation (NF-kB luciferase) (fold of resiquimod alone) in the data set with CTNNB1 [2] came out at 1.9.
For “RNA1{m(G)[sp].m(C)[sp].m(C)[sp].m(G)[sp].m(C)[sp].d(T)[sp].d(T)[sp].d(T)[sp].d(T)[sp].d(C)[sp].d(T)[sp].d(G)[sp].d(T)[sp].d(C)[sp].d(T)[sp].m(G)[sp].m(G)[sp].m(U)[sp].m(U)[sp].m(C)}$$$$”, in the data set with CTNNB1 [1], the TLR7 signal (NF-kB luciferase) (% of resiquimod alone) amounted to 70.5. Moreover, the TLR8 potentiation (NF-kB luciferase) (fold of resiquimod alone) with CTNNB1 [2] was 2.
Regarding “RNA1{m(C)[sp].m(U)[sp].m(U)[sp].m(A)[sp].m(U)[sp].d(A)[sp].d(A)[sp].d(T)[sp].d(T)[sp].d(A)[sp].d(T)[sp].d(T)[sp].d(G)[sp].d(C)[sp].d(A)[sp].m(A)[sp].m(G)[sp].m(U)[sp].m(G)[sp].m(A)}$$$$”, the TLR7 signal (NF-kB luciferase) (% of resiquimod alone) with CTNNB1 [1] came out at 74.9. For the same substance, in the data set with CTNNB1 [2], the TLR8 potentiation (NF-kB luciferase) (fold of resiquimod alone) is 2.78.
For “RNA1{m(U)[sp].m(G)[sp].m(G)[sp].m(C)[sp].m(A)[sp].d(G)[sp].d(G)[sp].d(C)[sp].d(T)[sp].d(C)[sp].d(A)[sp].d(G)[sp].d(T)[sp].d(G)[sp].d(A)[sp].m(U)[sp].m(G)[sp].m(U)[sp].m(C)[sp].m(U)}$$$$”, the TLR7 signal (NF-kB luciferase) (% of resiquimod alone) with CTNNB1 [1] was determined as 50.4. The TLR8 potentiation (NF-kB luciferase) (fold of resiquimod alone) with CTNNB1 [2] turned out to be 1.73.
The like results for “RNA1{m(U)[sp].m(U)[sp].m(C)[sp].m(A)[sp].m(A)[sp].d(T)[sp].d(G)[sp].d(G)[sp].d(G)[sp].d(A)[sp].d(G)[sp].d(A)[sp].d(A)[sp].d(T)[sp].d(A)[sp].m(A)[sp].m(A)[sp].m(G)[sp].m(C)[sp].m(A)}$$$$” were, in that order, 32.9 and 3.03.
The substance “RNA1{m(C)[sp].m(U)[sp].m(C)[sp].m(A)[sp].m(U)[sp].d(T)[sp].d(A)[sp].d(T)[sp].d(A)[sp].d(T)[sp].d(T)[sp].d(T)[sp].d(A)[sp].d(C)[sp].d(T)[sp].m(A)[sp].m(A)[sp].m(A)[sp].m(G)[sp].m(C)}$$$$” came in with a TLR7 signal (NF-kB luciferase) (% of resiquimod alone) with CTNNB1 [1] of 93.5. The TLR8 potentiation (NF-kB luciferase) (fold of resiquimod alone) with CTNNB1 [2] came to 3.46.
The like results for “RNA1{m(U)[sp].m(C)[sp].m(A)[sp].m(A)[sp].m(A)[sp].d(G)[sp].d(T)[sp].d(A)[sp].d(T)[sp].d(A)[sp].d(T)[sp].d(A)[sp].d(C)[sp].d(C)[sp].d(T)[sp].m(G)[sp].m(U)[sp].m(U)[sp].m(U)[sp].m(U)}$$$$” were, in that order, 64.4 and 4.27.
Turning to “RNA1{m(G)[sp].m(G)[sp].m(U)[sp].m(G)[sp].m(G)[sp].d(T)[sp].d(G)[sp].d(G)[sp].d(C)[sp].d(C)[sp].d(A)[sp].d(C)[sp].d(C)[sp].d(C)[sp].d(A)[sp].m(U)[sp].m(C)[sp].m(U)[sp].m(C)[sp].m(A)}$$$$”, in the data set with CTNNB1 [1], the TLR7 signal (NF-kB luciferase) (% of resiquimod alone) is 75.6. The TLR8 potentiation (NF-kB luciferase) (fold of resiquimod alone) with CTNNB1 [2] was 1.11.
In the same order, the values of “RNA1{m(U)[sp].m(U)[sp].m(U)[sp].m(A)[sp].m(U)[sp].d(T)[sp].d(C)[sp].d(A)[sp].d(G)[sp].d(A)[sp].d(T)[sp].d(T)[sp].d(A)[sp].d(C)[sp].d(A)[sp].m(A)[sp].m(U)[sp].m(U)[sp].m(A)[sp].m(A)}$$$$” are 53.4 and 3.68.
The like results for “RNA1{m(G)[sp].m(G)[sp].m(G)[sp].m(U)[sp].m(C)[sp].d(C)[sp].d(A)[sp].d(T)[sp].d(A)[sp].d(C)[sp].d(C)[sp].d(C)[sp].d(A)[sp].d(A)[sp].d(G)[sp].m(G)[sp].m(C)[sp].m(A)[sp].m(U)[sp].m(C)}$$$$” were, in that order, 47.6 and 1.08.
The substance “RNA1{m(C)[sp].m(A)[sp].m(A)[sp].m(U)[sp].m(G)[sp].d(G)[sp].d(G)[sp].d(A)[sp].d(G)[sp].d(A)[sp].d(A)[sp].d(T)[sp].d(A)[sp].d(A)[sp].d(A)[sp].m(G)[sp].m(C)[sp].m(A)[sp].m(G)[sp].m(C)}$$$$” came in with a TLR7 signal (NF-kB luciferase) (% of resiquimod alone) in the data set with CTNNB1 [1] of 73.7. The TLR8 potentiation (NF-kB luciferase) (fold of resiquimod alone) with CTNNB1 [2] stood at 2.5.
The like results for “RNA1{m(G)[sp].m(U)[sp].m(C)[sp].m(C)[sp].m(A)[sp].d(A)[sp].d(G)[sp].d(A)[sp].d(T)[sp].d(C)[sp].d(A)[sp].d(G)[sp].d(C)[sp].d(A)[sp].d(G)[sp].m(U)[sp].m(C)[sp].m(U)[sp].m(C)[sp].m(A)}$$$$” were, in that order, 32.6 and 1.96.
In the same order, the values of “RNA1{m(C)[sp].m(U)[sp].m(U)[sp].m(A)[sp].m(U)[sp].d(T)[sp].d(T)[sp].d(T)[sp].d(A)[sp].d(A)[sp].d(G)[sp].d(C)[sp].d(A)[sp].d(T)[sp].d(A)[sp].m(U)[sp].m(U)[sp].m(A)[sp].m(A)[sp].m(A)}$$$$” are 123 and 2.88.
The like results for “RNA1{m(U)[sp].m(C)[sp].m(A)[sp].m(U)[sp].m(U)[sp].d(A)[sp].d(T)[sp].d(A)[sp].d(T)[sp].d(T)[sp].d(T)[sp].d(A)[sp].d(C)[sp].d(T)[sp].d(A)[sp].m(A)[sp].m(A)[sp].m(G)[sp].m(C)[sp].m(U)}$$$$” were, in that order, 65.5 and 4.22.
On to “RNA1{m(C)[sp].m(U)[sp].m(C)[sp].m(U)[sp].m(U)[sp].d(G)[sp].d(A)[sp].d(A)[sp].d(G)[sp].d(C)[sp].d(A)[sp].d(T)[sp].d(C)[sp].d(G)[sp].d(T)[sp].m(A)[sp].m(U)[sp].m(C)[sp].m(A)[sp].m(C)}$$$$”, for which the TLR7 signal (NF-kB luciferase) (% of resiquimod alone) with CTNNB1 [1] is 93.4. Further, the TLR8 potentiation (NF-kB luciferase) (fold of resiquimod alone) in the data set with CTNNB1 [2] was found to be 2.71.
The like results for “RNA1{m(U)[sp].m(C)[sp].m(U)[sp].m(A)[sp].m(U)[sp].d(T)[sp].d(T)[sp].d(G)[sp].d(T)[sp].d(C)[sp].d(T)[sp].d(A)[sp].d(T)[sp].d(T)[sp].d(T)[sp].m(U)[sp].m(A)[sp].m(U)[sp].m(A)[sp].m(C)}$$$$” were, in that order, 92.8 and 4.61.
In the same order, the values of “RNA1{m(A)[sp].m(C)[sp].m(U)[sp].m(G)[sp].m(U)[sp].d(G)[sp].d(T)[sp].d(A)[sp].d(G)[sp].d(A)[sp].d(T)[sp].d(G)[sp].d(G)[sp].d(G)[sp].d(A)[sp].m(U)[sp].m(C)[sp].m(U)[sp].m(G)[sp].m(C)}$$$$” are 99.8 and 3.43.
The like results for “RNA1{m(C)[sp].m(A)[sp].m(G)[sp].m(A)[sp].m(U)[sp].d(A)[sp].d(G)[sp].d(C)[sp].d(A)[sp].d(C)[sp].d(C)[sp].d(T)[sp].d(T)[sp].d(C)[sp].d(A)[sp].m(G)[sp].m(C)[sp].m(A)[sp].m(C)[sp].m(U)}$$$$” were, in that order, 126 and 3.22.
Take “RNA1{m(A)[sp].m(G)[sp].m(A)[sp].m(U)[sp].m(C)[sp].d(T)[sp].d(G)[sp].d(G)[sp].d(C)[sp].d(A)[sp].d(G)[sp].d(C)[sp].d(C)[sp].d(C)[sp].d(A)[sp].m(U)[sp].m(C)[sp].m(A)[sp].m(A)[sp].m(C)}$$$$”: the TLR7 signal (NF-kB luciferase) (% of resiquimod alone) with CTNNB1 [1] worked out at 55.4. In the data set with CTNNB1 [2], the TLR8 potentiation (NF-kB luciferase) (fold of resiquimod alone) was 1.89.
The like results for “RNA1{m(C)[sp].m(A)[sp].m(C)[sp].m(C)[sp].m(C)[sp].d(A)[sp].d(C)[sp].d(T)[sp].d(T)[sp].d(G)[sp].d(G)[sp].d(C)[sp].d(A)[sp].d(G)[sp].d(A)[sp].m(C)[sp].m(C)[sp].m(A)[sp].m(U)[sp].m(C)}$$$$” were, in that order, 91.5 and 1.12.
The like results for “RNA1{m(C)[sp].m(C)[sp].m(A)[sp].m(C)[sp].m(C)[sp].d(C)[sp].d(A)[sp].d(C)[sp].d(T)[sp].d(T)[sp].d(G)[sp].d(G)[sp].d(C)[sp].d(A)[sp].d(G)[sp].m(A)[sp].m(C)[sp].m(C)[sp].m(A)[sp].m(U)}$$$$” were, in that order, 86.9 and 0.99.
“RNA1{m(U)[sp].m(G)[sp].m(U)[sp].m(G)[sp].m(G)[sp].d(C)[sp].d(T)[sp].d(T)[sp].d(G)[sp].d(T)[sp].d(C)[sp].d(C)[sp].d(T)[sp].d(C)[sp].d(A)[sp].m(G)[sp].m(A)[sp].m(C)[sp].m(A)[sp].m(U)}$$$$”: the TLR7 signal (NF-kB luciferase) (% of resiquimod alone) in the data set with CTNNB1 [1] is 47.1. Further, the TLR8 potentiation (NF-kB luciferase) (fold of resiquimod alone) in the data set with CTNNB1 [2] amounted to 1.57.
The like results for “RNA1{m(A)[sp].m(C)[sp].m(C)[sp].m(A)[sp].m(C)[sp].d(C)[sp].d(C)[sp].d(A)[sp].d(C)[sp].d(T)[sp].d(T)[sp].d(G)[sp].d(G)[sp].d(C)[sp].d(A)[sp].m(G)[sp].m(A)[sp].m(C)[sp].m(C)[sp].m(A)}$$$$” were, in that order, 63.4 and 1.71.
In the same order, the values of “RNA1{m(U)[sp].m(C)[sp].m(C)[sp].m(A)[sp].m(U)[sp].d(C)[sp].d(C)[sp].d(C)[sp].d(T)[sp].d(T)[sp].d(C)[sp].d(C)[sp].d(T)[sp].d(G)[sp].d(T)[sp].m(U)[sp].m(U)[sp].m(A)[sp].m(G)[sp].m(U)}$$$$” are 96.4 and 4.57.
